Reference: ChEMBL document CHEMBL5365522, “Discovery of potential novel TRPC5 inhibitors by virtual screening and bioassay” (Bioorg Med Chem, 2023)
Calls of active or inactive are those of the source. No cut-off for these calls is given here.

Columns and labels:
[1] = molecular target: T1, Short transient receptor potential channel 5 (Homo sapiens) (UniProt Q9UL62); assay: Inhibition of human TRPC5 expressed in HEK293T cells assessed as intracellular calcium influx at 30 uM measured after 30 mins by Fluo-4 AM dye based fluorescence analysis; assay type: cell-based
T1 sequence (whole entry): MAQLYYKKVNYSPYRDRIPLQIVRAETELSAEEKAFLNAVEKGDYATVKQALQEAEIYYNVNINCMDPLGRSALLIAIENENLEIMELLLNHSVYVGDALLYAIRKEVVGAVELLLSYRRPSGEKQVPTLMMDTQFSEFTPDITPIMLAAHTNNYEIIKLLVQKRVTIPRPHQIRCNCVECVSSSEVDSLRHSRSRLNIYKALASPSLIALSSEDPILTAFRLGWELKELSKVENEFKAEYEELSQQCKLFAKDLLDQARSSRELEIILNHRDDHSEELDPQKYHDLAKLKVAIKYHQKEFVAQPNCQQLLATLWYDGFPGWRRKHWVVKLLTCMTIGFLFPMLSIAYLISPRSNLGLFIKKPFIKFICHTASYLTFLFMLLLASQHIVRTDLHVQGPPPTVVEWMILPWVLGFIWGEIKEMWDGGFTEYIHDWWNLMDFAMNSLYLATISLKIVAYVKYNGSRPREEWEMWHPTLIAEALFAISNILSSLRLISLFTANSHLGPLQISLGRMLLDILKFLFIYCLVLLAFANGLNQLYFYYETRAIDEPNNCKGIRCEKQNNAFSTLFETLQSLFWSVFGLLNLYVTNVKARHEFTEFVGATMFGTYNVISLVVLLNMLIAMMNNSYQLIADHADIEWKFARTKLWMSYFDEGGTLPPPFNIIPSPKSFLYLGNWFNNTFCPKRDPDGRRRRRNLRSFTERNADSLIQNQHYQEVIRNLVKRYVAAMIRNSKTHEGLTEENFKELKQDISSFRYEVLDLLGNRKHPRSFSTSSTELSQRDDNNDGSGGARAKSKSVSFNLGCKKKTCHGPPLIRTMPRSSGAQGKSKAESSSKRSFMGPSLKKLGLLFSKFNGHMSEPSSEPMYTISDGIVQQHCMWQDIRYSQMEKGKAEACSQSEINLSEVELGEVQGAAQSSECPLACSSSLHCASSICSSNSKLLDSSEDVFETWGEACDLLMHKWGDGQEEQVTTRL

HEK-293T [2] = assay: Cytotoxicity against human HEK293T cells expressing human TRPC5 assessed as cell death incubated for 24 hrs by MTS assay; assay type: toxicity, cell-based
[3] = molecular target: T2, Short transient receptor potential channel 5 (Homo sapiens, UniProt Q9UL62); assay: Inhibition of human TRPC5 expressed in HEK293T cells assessed as intracellular calcium influx by measuring Ca2+ flow inhibition after 30 mins by Fluo-4 AM dye based fluorescence analysis; assay type: cell-based
T2 sequence (Q9UL62 whole entry): T1 sequence (whole entry)

HEK-293T [4] = assay: Cytotoxicity against human HEK293T cells expressing human TRPC5 assessed as reduction in cell viability at 100 uM incubated for 24 hrs by MTS assay; assay type: toxicity, cell-based

| Compound | inhibition [1] | Activity (HEK-293T [2]) | IC50 [3] [µM] | Activity (HEK-293T [4]) |
| --- | --- | --- | --- | --- |
| CC(c1ccccc1)n1c(CCCO)nc2ccccc21 (stereo unspecified) | Active | Toxic | – | – |
| c1ccc(Cn2c(NCc3ccco3)nc3ccccc32)cc1 | – | – | 14.9 | – |
| O=C(Cc1cccc(F)c1)NCc1nnc2ccc(-c3ccc(F)cc3)nn12 | Active | – | 10.2 | Non-Toxic |
